Legend:
Format in all cases: cell-based
SK-N-AS = test: Cell growth, CellTitor-Glo assay, 72 h; details: Homo sapiens
Description: (§1) The human NB cell lines, SK-N-DZ, SK-N-BE(2)c, SK-N-AS, and LAN-5 obtained from the American Type Culture Collection (Rockville, MD), were cultured in DMEM with 10% fetal bovine serum (FBS), 100 units/ml penicillin, and 100 μg/ml streptomycin in the presence of 5% CO2 at 37° C. Human PBMCs from a healthy donor were purchased from Sanguine BioSciences (Valencia, CA) and grown in RPMI1640 with 10% FBS, 100 units/ml penicillin, 100 μg/ml streptomycin, and 10 ng/ml IL-2 in the presence of 5% CO2 at 37° C. Human embryonic progenitor cell line 7SM0032 was acquired from Millipore (Billerica, MA) and grown in the hEPM-1 Media Kit purchased from the same company. The plasmid pCBASce expresses the rare cutting I-SceI meganuclease. The U20S-derived cell lines, DR-GFP and EJ5-GFP, each contain a stably transfected reporter gene for DSB repair mediated by HR and end joining (EJ), respectively. These cell lines were cultured in DMEM medium with 10% FBS at 37° C. in the presence of 5% CO2.
(§2) To measure the effect of the compounds on cell growth, cells were seeded at 3×10^4/ml into a 96-well plate. Once attached, cells were treated with various concentrations of AOH1160 for 72 h. Cell growth was measured by the CellTitor-Glo assay (Promega, Madison, WI) according to the manufacturer's instructions. To measure apoptosis, cells were seeded at 1×10^5/ml onto a chamber slide. Once attached, cells were treated with the 500 nM AOH1160 for 24 h. Cells were fixed and analyzed by a TUNEL assay using the TMR red in situ cell death detection kit (Roche Diagnostics, Indianapolis, IN).

SK-N-BE(2)c = test: Cell growth, CellTitor-Glo assay, 72 h; details: Homo sapiens
Description: as §1, §2

SK-N-DZ = test: Cell growth, CellTitor-Glo assay, 72 h; details: Homo sapiens
Description: as §1, §2

786-0 = test: NCI-60 panel test; details: Homo sapiens; 786-0, NCI-60 5-dose study
Description: (§3) FIG. 7. NCI-60 panel test. The effect of AOH1160 on growth of the NCI-60 panel, which consists of 60 cancer cell lines representing 9 major cancer types, was tested in a 5-dose study. Shown are the Log IC50 values determined for each cell line. […] This study was performed by the National Institute of Cancer.
(§4) As observed in FIG. 7, the effect of AOH1160 on growth of the NCI-60 panel, which consists of 60 cancer cell lines representing 9 major cancer types, was tested in a 5-dose study. Shown are the Log IC50 values determined for each cell line.

A498 = test: NCI-60 panel test; details: Homo sapiens; A498, NCI-60 5-dose study
Description: as §3, §4

A549/ATCC = test: NCI-60 panel test; details: Homo sapiens, NCI-60 5-dose study
Description: as §3, §4

ACHN = test: NCI-60 panel test; details: Homo sapiens, NCI-60 5-dose study
Description: as §3, §4

BT-549 = test: NCI-60 panel test; details: Homo sapiens; BT-549, NCI-60 5-dose study
Description: as §3, §4

CCRF-CEM = test: NCI-60 panel test; details: Homo sapiens, NCI-60 5-dose study
Description: as §3, §4

EKVX = test: NCI-60 panel test; details: Homo sapiens, NCI-60 5-dose study
Description: as §3, §4

HCC-2998 = test: NCI-60 panel test; details: Homo sapiens; HCC-2998, NCI-60 5-dose study
Description: as §3, §4

HL-60(TB) = test: NCI-60 panel test; details: Homo sapiens, NCI-60 5-dose study
Description: as §3, §4

HOP-62 = test: NCI-60 panel test; details: Homo sapiens; HOP-62, NCI-60 5-dose study
Description: as §3, §4

HS 578T = test: NCI-60 panel test; details: Homo sapiens, NCI-60 5-dose study
Description: as §3, §4

HT29 = test: NCI-60 panel test; details: Homo sapiens, HT-29; HT29, NCI-60 5-dose study
Description: as §3, §4

IGROV1 = test: NCI-60 panel test; details: Homo sapiens, IGROV-1; IGROV1, NCI-60 5-dose study
Description: as §3, §4

MDA-MB-435 = test: NCI-60 panel test; details: Homo sapiens; MDA-MB-435, NCI-60 5-dose study
Description: as §3, §4

NCI-H23 = test: NCI-60 panel test; details: Homo sapiens; NCI-H23, NCI-60 5-dose study
Description: as §3, §4

NCI-H322M = test: NCI-60 panel test; details: Homo sapiens, NCI-60 5-dose study
Description: as §3, §4

NCI/ADR-RES = test: NCI-60 panel test; details: Homo sapiens, NCI-60 5-dose study
Description: as §3, §4

OVCAR-4 = test: NCI-60 panel test; details: Homo sapiens; OVCAR-4, NCI-60 5-dose study
Description: as §3, §4

PC-3 = test: NCI-60 panel test; details: Homo sapiens; PC-3, NCI-60 5-dose study
Description: as §3, §4

RPMI-8226 = test: NCI-60 panel test; details: Homo sapiens; RPMI-8226, NCI-60 5-dose study
Description: as §3, §4

SK-OV-3 = test: NCI-60 panel test; details: Homo sapiens; SK-OV-3, NCI-60 5-dose study
Description: as §3, §4

SN12C = test: NCI-60 panel test; details: Homo sapiens, NCI-60 5-dose study
Description: as §3, §4

SNB-75 = test: NCI-60 panel test; details: Homo sapiens; SNB-75, NCI-60 5-dose study
Description: as §3, §4

SR = test: NCI-60 panel test; details: Homo sapiens, NCI-60 5-dose study
Description: as §3, §4

U251 = test: NCI-60 panel test; details: Homo sapiens, U-251; U251, NCI-60 5-dose study
Description: as §3, §4

UACC-62 = test: NCI-60 panel test; details: Homo sapiens; UACC-62, NCI-60 5-dose study
Description: as §3, §4

UO-31 = test: NCI-60 panel test; details: Homo sapiens; UO-31, NCI-60 5-dose study
Description: as §3, §4

Row | Structure (SMILES) | IC50 (SK-N-AS) | IC50 (SK-N-BE(2)c) | IC50 (SK-N-DZ) | GI50 (786-0) | GI50 (A498) | GI50 (A549/ATCC) | GI50 (ACHN) | GI50 (BT-549) | GI50 (CCRF-CEM) | GI50 (EKVX) | GI50 (HCC-2998) | GI50 (HL-60(TB)) | GI50 (HOP-62) | GI50 (HS 578T) | GI50 (HT29) | GI50 (IGROV1) | GI50 (MDA-MB-435) | GI50 (NCI-H23) | GI50 (NCI-H322M) | GI50 (NCI/ADR-RES) | also measured
1 | O=C(CNC(=O)c1cccc2ccccc12)Nc1ccccc1Oc1ccccc1 [AOH1160] | 0.108 µM | 0.326 µM | 0.238 µM | 0.447 µM | 0.257 µM | 0.457 µM | 0.832 µM | 0.407 µM | 0.347 µM | 0.776 µM | 0.708 µM | 0.269 µM | 0.355 µM | 0.363 µM | 0.288 µM | 0.912 µM | 0.0427 µM | 0.661 µM | 0.631 µM | 0.24 µM | GI50 (OVCAR-4): 4.57 µM; GI50 (PC-3): 0.302 µM; GI50 (RPMI-8226): 0.316 µM; GI50 (SK-OV-3): 0.398 µM; GI50 (SN12C): 0.589 µM; GI50 (SNB-75): 0.229 µM; GI50 (SR): 0.0832 µM; GI50 (U251): 0.331 µM; GI50 (UACC-62): 0.178 µM; GI50 (UO-31): 0.646 µM
2 | O=C(CNC(=O)c1cccc2ccccc12)Nc1ccccc1Oc1ccc(O)cc1 [PCNA1] | 0.157 µM | 0.49 µM | 0.467 µM | 1.05 µM | 1.02 µM | 1.48 µM | 1.86 µM | 1.62 µM | 0.933 µM | 1.17 µM | 8.91 µM | 0.708 µM | 1.35 µM | 1.35 µM | 1 µM | 2.34 µM | 0.162 µM | 2.14 µM | 1.15 µM | 1.2 µM | GI50 (OVCAR-4): 2.82 µM; GI50 (PC-3): 1.32 µM; GI50 (RPMI-8226): 0.977 µM; GI50 (SK-OV-3): 1.58 µM; GI50 (SN12C): 2.19 µM; GI50 (SNB-75): 0.589 µM; GI50 (SR): 0.457 µM; GI50 (U251): 1.41 µM; GI50 (UACC-62): 1.17 µM; GI50 (UO-31): 1.78 µM
3 | O=C(CNC(=O)c1cccc2ccccc12)Nc1ccccc1Oc1cccc(O)c1 [PCNA2] | 0.192 µM | 0.485 µM | 0.539 µM | 10 µM | 5.13 µM | 9.55 µM | 17.4 µM | 25.1 µM | 4.17 µM | 8.91 µM | 25.1 µM | 1.32 µM | 8.13 µM | 5.75 µM | 21.4 µM | 10 µM | 0.759 µM | 15.8 µM | 10.7 µM | 7.94 µM | GI50 (OVCAR-4): 25.1 µM; GI50 (PC-3): 7.08 µM; GI50 (RPMI-8226): 8.13 µM; GI50 (SK-OV-3): 12.9 µM; GI50 (SN12C): 25.1 µM; GI50 (SNB-75): 3.31 µM; GI50 (SR): 1.05 µM; GI50 (U251): 8.32 µM; GI50 (UACC-62): 1.62 µM; GI50 (UO-31): 16.6 µM
4 | COc1ccc(Oc2ccccc2NC(=O)CNC(=O)c2cccc3ccccc23)cc1 [PCNA6] | 0.091 µM | 0.234 µM | 0.271 µM | 1.15 µM | 0.562 µM | 1.26 µM | 1.51 µM | 1.12 µM | 0.912 µM | 1.38 µM | 1.41 µM | 0.617 µM | 0.724 µM | 1.7 µM | 0.575 µM | 1.58 µM | 0.0832 µM | 1.29 µM | 1.23 µM | 0.427 µM | GI50 (OVCAR-4): 2.24 µM; GI50 (PC-3): 1.05 µM; GI50 (RPMI-8226): 1.12 µM; GI50 (SK-OV-3): 1.02 µM; GI50 (SN12C): 2.29 µM; GI50 (SR): 0.166 µM; GI50 (U251): 1.05 µM; GI50 (UACC-62): 0.562 µM; GI50 (UO-31): 1.48 µM
5 | COc1cccc(Oc2ccccc2NC(=O)CNC(=O)c2cccc3ccccc23)c1 [PCNA7/ AOH1996] | 0.125 µM | 0.236 µM | 0.288 µM | 0.182 µM | 0.115 µM | 0.316 µM | 0.398 µM | 0.295 µM | 0.363 µM | 1.29 µM | 1.26 µM | 0.0813 µM | 0.302 µM | 0.38 µM | 0.11 µM | 1.05 µM | 0.0708 µM | 0.741 µM | 1.29 µM | 0.24 µM | GI50 (OVCAR-4): 0.776 µM; GI50 (PC-3): 0.282 µM; GI50 (RPMI-8226): 0.955 µM; GI50 (SK-OV-3): 0.49 µM; GI50 (SN12C): 1.45 µM; GI50 (SNB-75): 0.129 µM; GI50 (SR): 0.115 µM; GI50 (U251): 0.24 µM; GI50 (UACC-62): 0.209 µM; GI50 (UO-31): 1.82 µM
